Values after ≈ are worked out from the molar mass of the structure shown.
Experiments:
Assay type in all cases: functional
[1] = Cytotoxicity against human MCF7 cells assessed as growth inhibition after 48 hrs by sulforhodamine B assay; conditions: MCF7, 48 h
[2] = Cytotoxicity against human NCI-H460 cells assessed as growth inhibition after 48 hrs by sulforhodamine B assay; conditions: NCI-H460, 48 h
[3] = Cytotoxicity against human SF268 cells assessed as growth inhibition after 48 hrs by sulforhodamine B assay; conditions: SF-268, 48 h
[4] = Cytotoxicity against human BxPC3 cells assessed as growth inhibition after 48 hrs by sulforhodamine B assay; conditions: BXPC-3, 48 h
[5] = Cytotoxicity against mouse P388 cells assessed as growth inhibition after 48 hrs by coulter particle counting method; conditions: P388, 48 h, read-out: ED50 (the source's name)
[6] = Cytotoxicity against human KM20L2 cells assessed as growth inhibition after 48 hrs by sulforhodamine B assay; conditions: KM-20L2, 48 h
[7] = Cytotoxicity against human DU145 cells assessed as growth inhibition after 48 hrs by sulforhodamine B assay; conditions: DU-145, 48 h

SMILES	GI50 [1]	GI50 [2]	GI50 [3]	GI50 [4]	EC50 [5]	GI50 [6]	GI50 [7]
C[C@H](C/C=C/C(C)(C)O)[C@H]1CC[C@@]2(C)C3=C(CC[C@]12C)[C@@]1(C)CC[C@H](O)C(C)(C)[C@@H]1CC3	2 µg/mL (≈ 4.52 µM)	1.9 µg/mL (≈ 4.29 µM)	1.9 µg/mL (≈ 4.29 µM)	1.8 µg/mL (≈ 4.07 µM)	> 10 µg/mL	1.8 µg/mL (≈ 4.07 µM)	1.9 µg/mL (≈ 4.29 µM)
C=C(C)[C@@H](O)CC[C@H](C)[C@@H]1CC=C2[C@]3(C)CC[C@H]4C(C)(C)[C@@H](O)CC[C@]4(C)[C@H]3CC[C@]21C	0.79 µg/mL (≈ 1.78 µM)	0.91 µg/mL (≈ 2.06 µM)	0.33 µg/mL (≈ 0.745 µM)	0.83 µg/mL (≈ 1.87 µM)	> 10 µg/mL	0.71 µg/mL (≈ 1.6 µM)	0.65 µg/mL (≈ 1.47 µM)
C=C(C)C(O)CC[C@@H](C)[C@@H]1CC[C@]2(C)C3=C(CC[C@@]12C)[C@@]1(C)CC[C@H](O)C(C)(C)[C@@H]1CC3 (some centres not stated)	2.5 µg/mL (≈ 5.65 µM)	1.7 µg/mL (≈ 3.84 µM)	1.4 µg/mL (≈ 3.16 µM)	1.5 µg/mL (≈ 3.39 µM)	> 10 µg/mL	7 µg/mL (≈ 15.8 µM)	1.5 µg/mL (≈ 3.39 µM)
C=C(C)[C@H](O)CC[C@H](C)[C@@H]1CC=C2[C@]3(C)CC[C@H]4C(C)(C)[C@@H](O)CC[C@]4(C)[C@H]3CC[C@]21C	0.68 µg/mL (≈ 1.54 µM)	0.19 µg/mL (≈ 0.429 µM)	0.36 µg/mL (≈ 0.813 µM)	0.2 µg/mL (≈ 0.452 µM)	> 10 µg/mL	> 1 µg/mL	0.58 µg/mL (≈ 1.31 µM)
C[C@H](C/C=C/C(C)(C)O)[C@@H]1CC[C@]2(C)C3=C(CC[C@@]12C)[C@@]1(C)CC[C@H](O)C(C)(C)[C@@H]1CC3	2.1 µg/mL (≈ 4.74 µM)	1.9 µg/mL (≈ 4.29 µM)	2.2 µg/mL (≈ 4.97 µM)	1.8 µg/mL (≈ 4.07 µM)	> 10 µg/mL	2 µg/mL (≈ 4.52 µM)	1.9 µg/mL (≈ 4.29 µM)
C[C@@H](C/C=C/C(C)(C)O)[C@H]1CC[C@@]2(C)C3=C(C(=O)C[C@@]12C)[C@@]1(C)CC[C@H](O)C(C)(C)[C@@H]1CC3	> 1 µg/mL	> 1 µg/mL	> 1 µg/mL	> 1 µg/mL	> 10 µg/mL	> 1 µg/mL	> 1 µg/mL
